Legend:
[1] = target: T1, IRE1a (Homo sapiens, UniProt O75460); assay: In vitro FRET assay (XBP1 RNA probe cleavage by IRE1a); type: biochemical; parameters: purchased SignalChem; conditions: SignalChem IRE1a protein 2 nM
Protocol: In vitro FRET assay was performed to evaluate the ability of select compounds to inhibit IRE1, the results of which are summarized in Table 3. To perform the in vitro FRET assay, 1× complete assay buffer (CAB; […] DTT, 50 mM sodium citrate pH 7.15, 1 mM magnesium acetate, 0.02% tween 20) was used to dilute SignalChem IRE1a protein to a final concentration of 2 nM. Selected compounds were serially diluted with DMSO in a non-binding black 384-well plate for a total of 15 ul in each well. 2 ul of the serially diluted compound or DMSO control were then added to new wells containing 98 ul of 1×CAB, for a total volume of 100 ul, 10 ul of which were then transferred to wells of a new plate. 5 ul of the diluted IRE1a was then added to each well. 5 ul of a […] XBP1 RNA probe was then added to each well. Fluorescence was then read over 30 minutes in kinetic mode (485/515 nm).
Two RNA probes were used, XBP1 wildtype (SEQ ID NO: 2) which is able to be spliced by active IRE1a or XBP1 mutant (SEQ ID NO: 3) which is unable to be spliced. Each probe contained a 5′ 6-FAM modification and a 3′ IOWA Black FQ modification.

[2] = target: T1, IRE1a; assay: IRE1a Endoribonuclease Nanoluciferase Assay (XBP1 luciferase reporter in 293 T cells); type: cell-based; conditions: 293 T cells transfected with XBP1 luciferase reporter plasmid
Protocol: Compounds disclosed herein were assessed for disruption of IRE1 signaling using a IRE1a Endoribonuclease Nanoluciferase Assay. Briefly, 2.5×10^6 293 T cells were seeded in a 10 cm^2 tissue culture plate. About 24 hours later, the cells were transfected with Effectene. In a 15 mL Tube, the following was added: 2 μg XBP1 luciferase reporter plasmid (PGK-Luc2-P2A-XBP1u-Nanoluciferase-PEST); 300 μl EC buffer; and 16 μl Enhancer, followed by incubation at room temp for 5 minutes. Next, 60 μl Effectene (Qiagen 301427) was added, followed by incubation at room temperature for 10 minutes. 2.6 mL cDMEM media was added. Old media was aspirated from the cells, followed by addition of 7 mL fresh media. Full transfection mixture was added dropwise to cells. Cells were incubated for 6 hours, followed by tripsinization, centrifugation and resuspension in 11 mL media. 100 uL of cells were plated per a well in a 96 well plate. A day later, stressors of choice+/− inhibitors were added. To harvest, media was aspirated from cells completely, then 50 uL 1× passive lysis buffer (Promega: E1941) was added per well and put on shaker (300 rpm) for 30 minutes at room temperature. Cells were centrifuged, and 15 uL sample per well was added to a new, opaque white 384 well plate (Corning 3570). 15 uL OneGlo (nanoluciferase kit, Promega N1630) was added. Plates were spun down, placed on shaker (300 rpm) for 10 minutes. Plates were read on luminometer, 1000 ms integration time per well. 15 uL Stop and Glo (nanoluciferase kit) was added. Plates were spun down, placed on shaker (300 rpm) for 10 minutes. Plates were read on luminometer, 1000 ms second integration time per well. Recordings are provided below in Table 4.

T1 sequence (O75460 19-977): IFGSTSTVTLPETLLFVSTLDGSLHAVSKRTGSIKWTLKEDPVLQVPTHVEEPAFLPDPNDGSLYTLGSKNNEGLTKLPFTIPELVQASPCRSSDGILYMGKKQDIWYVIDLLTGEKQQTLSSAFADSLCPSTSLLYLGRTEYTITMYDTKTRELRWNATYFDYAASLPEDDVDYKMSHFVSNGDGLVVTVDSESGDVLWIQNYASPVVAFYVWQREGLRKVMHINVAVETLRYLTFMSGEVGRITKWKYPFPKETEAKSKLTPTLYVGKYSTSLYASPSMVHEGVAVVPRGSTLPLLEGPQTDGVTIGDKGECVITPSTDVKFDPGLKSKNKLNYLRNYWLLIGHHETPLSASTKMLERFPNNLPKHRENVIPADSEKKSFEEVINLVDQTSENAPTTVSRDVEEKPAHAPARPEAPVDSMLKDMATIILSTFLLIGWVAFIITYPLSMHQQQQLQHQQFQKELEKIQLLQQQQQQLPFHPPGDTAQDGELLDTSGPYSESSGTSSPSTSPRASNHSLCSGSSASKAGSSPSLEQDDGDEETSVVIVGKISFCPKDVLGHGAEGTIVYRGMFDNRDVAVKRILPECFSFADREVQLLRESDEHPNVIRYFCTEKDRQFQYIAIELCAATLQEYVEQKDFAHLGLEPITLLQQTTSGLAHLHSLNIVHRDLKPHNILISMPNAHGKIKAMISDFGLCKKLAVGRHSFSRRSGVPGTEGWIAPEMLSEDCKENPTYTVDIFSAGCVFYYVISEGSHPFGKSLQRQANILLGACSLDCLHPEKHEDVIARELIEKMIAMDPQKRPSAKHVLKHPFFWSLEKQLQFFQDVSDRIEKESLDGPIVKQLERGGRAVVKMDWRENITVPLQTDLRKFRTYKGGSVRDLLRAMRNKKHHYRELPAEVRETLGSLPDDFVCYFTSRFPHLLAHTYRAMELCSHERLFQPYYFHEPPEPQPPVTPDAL

CCc1cc(-c2cc(NC(=O)Cc3cccc(C(F)(F)F)c3)nn2C)cc2cnc(N[C@H]3CC[C@H](N)CC3)nc12 [Compound 2, N-(5-(2-(((1r,4r)-4-aminocyclohexyl)amino)-8-ethylquinazolin-6-yl)-1-methyl-1H-pyrazol-3-yl)-2-(3-(trifluoromethyl)phenyl)acetamide] showed an IC50 [1] of no more than 5 nM and an EC50 [2] of 50 to 100 nM.
Work on Cn1nc(NC(=O)Cc2cccc(C(F)(F)F)c2)cc1-c1ccc2nc(N[C@H]3CC[C@H](N)CC3)ncc2c1 [Compound 1, N-(5-(2-(((1r,4r)-4-aminocyclohexyl)amino)quinazolin-6-yl)-1-methyl-1H-pyrazol-3-yl)-2-(3-(trifluoromethyl)phenyl)acetamide] yielded an IC50 [1] of 50 to 100 nM and an EC50 [2] greater than 100 nM.
CCc1cc(-c2cc(NC(=O)Cc3cc(C(F)(F)F)ccc3C(F)(F)F)nn2C)cc2cnc(N[C@H]3CC[C@H](N)CC3)nc12 [Compound 12, N-(5-(2-(((1r,4r)-4-aminocyclohexyl)amino)-8-ethylquinazolin-6-yl)-1-methyl-1H-pyrazol-3-yl)-2-(2,5-bis(trifluoromethyl)phenyl)acetamide] was tested, and the IC50 [1] was no more than 5 nM and the “Mean EC50” value [2] was “A-B”.
CCc1cc(-c2cc(NC(=O)C(C)c3cccc(C(F)(F)F)c3)nn2C)cc2cnc(N[C@H]3CC[C@H](N)CC3)nc12 (some centres unmarked) [Compound 25, N-(5-(2-(((1r,4r)-4-aminocyclohexyl)amino)-8-ethylquinazolin-6-yl)-1-methyl-1H-pyrazol-3-yl)-2-(3-(trifluoromethyl)phenyl)propanamide] was tested, and the IC50 [1] was 5 to 50 nM and the EC50 [2] was greater than 100 nM.
CCc1cc(-c2cc(NC(=O)Cc3cc(C(F)(F)F)ccc3C(F)(F)F)nn2C)cc2cnc(N[C@H]3CC[C@H](NC(=O)COC)CC3)nc12 [Compound 42, 2-(2,5-bis(trifluoromethyl)phenyl)-N-(5-(8-ethyl-2-(((1r,4r)-4-(2-methoxyacetamido)cyclohexyl)amino)quinazolin-6-yl)-1-methyl-1H-pyrazol-3-yl)acetamide] showed an IC50 [1] greater than 100 nM and an EC50 [2] greater than 100 nM.
In the case of CCc1cc(-c2cc(NC(=O)Cc3cc(C(F)(F)F)ccc3C(F)(F)F)nn2C)cc2cnc(N[C@H]3CC[C@H](NC(C)=O)CC3)nc12 [Compound 41, N-(5-(2-(((1r,4r)-4-acetamidocyclohexyl)amino)-8-ethylquinazolin-6-yl)-1-methyl-1H-pyrazol-3-yl)-2-(2,5-bis(trifluoromethyl)phenyl)acetamide], the IC50 [1] is reported as greater than 100 nM and the EC50 [2] is reported as greater than 100 nM.
CCc1cc(-c2cc(NC(=O)Cc3cc(F)ccc3C(F)(F)F)nn2C)cc2cnc(N[C@H]3CC[C@H](N)CC3)nc12 [Compound 13, N-(5-(2-(((1r,4r)-4-aminocyclohexyl)amino)-8-ethylquinazolin-6-yl)-1-methyl-1H-pyrazol-3-yl)-2-(5-fluoro-2-(trifluoromethyl)phenyl)acetamide] showed an IC50 [1] of 5 to 50 nM and an EC50 [2] greater than 100 nM.
Compound CCc1cc(-c2cc(NC(=O)Cc3cc(C(F)(F)F)ccc3OC)nn2C)cc2cnc(N[C@H]3CC[C@H](N)CC3)nc12 [Compound 43, N-(5-(2-(((1r,4r)-4-aminocyclohexyl)amino)-8-ethylquinazolin-6-yl)-1-methyl-1H-pyrazol-3-yl)-2-(2-methoxy-5-(trifluoromethyl)phenyl)acetamide] has an IC50 [1] of no more than 5 nM and an EC50 [2] of 5 to 50 nM.
CCc1cc(-c2cc(NC(=O)Cc3ccc(OC4CCN(C)CC4)c(C(F)(F)F)c3)nn2C)cc2cnc(N[C@H]3CC[C@H](N)CC3)nc12 [Compound 32, N-(5-(2-(((1r,4r)-4-aminocyclohexyl)amino)-8-ethylquinazolin-6-yl)-1-methyl-1H-pyrazol-3-yl)-2-(4-((1-methylpiperidin-4-yl)oxy)-3-(trifluoromethyl)phenyl)acetamide] gave an IC50 [1] of no more than 5 nM and an EC50 [2] of no more than 5 nM.
Compound CCc1cc(-c2cc(CC(=O)Nc3ccc(OCCCNC)c(C(F)(F)F)c3)nn2C)cc2cnc(N[C@H]3CC[C@H](N)CC3)nc12 [Compound 37, 2-(5-(2-(((1r,4r)-4-aminocyclohexyl)amino)-8-ethylquinazolin-6-yl)-1-methyl-1H-pyrazol-3-yl)-N-(4-(3-(methylamino)propoxy)-3-(trifluoromethyl)phenyl)acetamide] has an IC50 [1] of no more than 5 nM and an EC50 [2] of 5 to 50 nM.
With CCc1cc(-c2cc(NC(=O)Cc3cccc(C(F)(F)F)c3)nn2C)cc2cnc(N[C@H]3CC[C@H](NCCOC)CC3)nc12 [Compound 40, N-(5-(8-ethyl-2-(((1r,4r)-4-((2-methoxyethyl)amino)cyclohexyl)amino)quinazolin-6-yl)-1-methyl-1H-pyrazol-3-yl)-2-(3-(trifluoromethyl)phenyl)acetamide] the IC50 [1] was no more than 5 nM and the EC50 [2] was 50 to 100 nM.
In the case of Cn1nc(NC(=O)Cc2cccc(C(F)(F)F)c2)cc1-c1cc2cnc(N[C@H]3CC[C@H](N)CC3)nc2c2ccccc12 [Compound 31, N-(5-(2-(((1r,4r)-4-aminocyclohexyl)amino)benzo[h]quinazolin-6-yl)-1-methyl-1H-pyrazol-3-yl)-2-(3-(trifluoromethyl)phenyl)acetamide], the IC50 [1] is reported as greater than 100 nM and the EC50 [2] is reported as greater than 100 nM.
CCc1cc(-c2cc(NC(=O)Cc3cc(C(F)(F)F)ccc3C(F)(F)F)nn2C)cc2cnc(N[C@H]3CC[C@H](NC(=O)CN)CC3)nc12 [Compound 44, 2-amino-N-((1r,4r)-4-((6-(3-(2-(2,5-bis(trifluoromethyl)phenyl)acetamido)-1-methyl-1H-pyrazol-5-yl)-8-ethylquinazolin-2-yl)amino)cyclohexyl)acetamide] gave an IC50 [1] of 50 to 100 nM and an EC50 [2] of 50 to 100 nM.
With CCc1cc(-c2cc(NC(=O)Nc3cc(C(F)(F)F)ccc3C(F)(F)F)nn2C)cc2cnc(N[C@H]3CC[C@H](N)CC3)nc12 [Compound 35, 1-(5-(2-(((1r,4r)-4-aminocyclohexyl)amino)-8-ethylquinazolin-6-yl)-1-methyl-1H-pyrazol-3-yl)-3-(2,5-bis(trifluoromethyl)phenyl)urea] the IC50 [1] was no more than 5 nM and the EC50 [2] was 5 to 50 nM.
Compound CCc1cc(-c2cc(NC(=O)Nc3ccc(OCCCNC)c(C(F)(F)F)c3)nn2C)cc2cnc(N[C@H]3CC[C@H](N)CC3)nc12 [Compound 29, 1-(5-(2-(((1r,4r)-4-aminocyclohexyl)amino)-8-ethylquinazolin-6-yl)-1-methyl-1H-pyrazol-3-yl)-3-(4-(3-(methylamino)propoxy)-3-(trifluoromethyl)phenyl)urea] has an IC50 [1] of no more than 5 nM and an EC50 [2] of no more than 5 nM.
For CCc1cc(-c2cc(NC(=O)Nc3ccc(OC4CCN(C)CC4)c(C(F)(F)F)c3)nn2C)cc2cnc(N[C@H]3CC[C@H](N)CC3)nc12 [Compound 4; Formic Acid, 1-(5-(2-(((1r,4r)-4-aminocyclohexyl)amino)-8-ethylquinazolin-6-yl)-1-methyl-1H-pyrazol-3-yl)-3-(4-((1-methylpiperidin-4-yl)oxy)-3-(trifluoromethyl)phenyl)urea], the IC50 [1] was no more than 5 nM and the EC50 [2] was no more than 5 nM.
Compound CCc1cc(-c2cc(NC(=O)Cc3cccc(C(F)(F)F)c3)nn2C)cc2cnc(N[C@H]3CC[C@H](N(C)C)CC3)nc12 [Compound 39, N-(5-(2-(((1r,4r)-4-(dimethylamino)cyclohexyl)amino)-8-ethylquinazolin-6-yl)-1-methyl-1H-pyrazol-3-yl)-2-(3-(trifluoromethyl)phenyl)acetamide] has an IC50 [1] of no more than 5 nM and an EC50 [2] of 5 to 50 nM.
With CCc1cc(-c2cc(NC(=O)Cc3ccc(C(F)(F)F)c(F)c3)nn2C)cc2cnc(N[C@H]3CC[C@H](N)CC3)nc12 [Compound 7, N-(5-(2-(((1r,4r)-4-aminocyclohexyl)amino)-8-ethylquinazolin-6-yl)-1-methyl-1H-pyrazol-3-yl)-2-(3-fluoro-4-(trifluoromethyl)phenyl)acetamide] the IC50 [1] was no more than 5 nM and the EC50 [2] was greater than 100 nM.
Compound CCc1cc(-c2cc(NC(=O)Cc3cccc(OC(F)(F)F)c3)nn2C)cc2cnc(N[C@H]3CC[C@H](N)CC3)nc12 [Compound 11, N-(5-(2-(((1r,4r)-4-aminocyclohexyl)amino)-8-ethylquinazolin-6-yl)-1-methyl-1H-pyrazol-3-yl)-2-(3-(trifluoromethoxy)phenyl)acetamide] has an IC50 [1] of 5 to 50 nM and an EC50 [2] greater than 100 nM.

Source: patent US10392367B2, “IRE1 small molecule inhibitors” (QUENTIS THERAPEUTICS, INC., priority 2017, dated 2019)
